The results in this text go back to US12581252B2, “Substituted pyrrolo[3,4-b]pyridines as PI3K-α inhibitors” (Relay Therapeutics, Inc., priority 2020, dated 2026).

Molecules are shown by their SMILES.

Chain of H1047R PIK3CA enzyme (P42336 whole entry H1047R): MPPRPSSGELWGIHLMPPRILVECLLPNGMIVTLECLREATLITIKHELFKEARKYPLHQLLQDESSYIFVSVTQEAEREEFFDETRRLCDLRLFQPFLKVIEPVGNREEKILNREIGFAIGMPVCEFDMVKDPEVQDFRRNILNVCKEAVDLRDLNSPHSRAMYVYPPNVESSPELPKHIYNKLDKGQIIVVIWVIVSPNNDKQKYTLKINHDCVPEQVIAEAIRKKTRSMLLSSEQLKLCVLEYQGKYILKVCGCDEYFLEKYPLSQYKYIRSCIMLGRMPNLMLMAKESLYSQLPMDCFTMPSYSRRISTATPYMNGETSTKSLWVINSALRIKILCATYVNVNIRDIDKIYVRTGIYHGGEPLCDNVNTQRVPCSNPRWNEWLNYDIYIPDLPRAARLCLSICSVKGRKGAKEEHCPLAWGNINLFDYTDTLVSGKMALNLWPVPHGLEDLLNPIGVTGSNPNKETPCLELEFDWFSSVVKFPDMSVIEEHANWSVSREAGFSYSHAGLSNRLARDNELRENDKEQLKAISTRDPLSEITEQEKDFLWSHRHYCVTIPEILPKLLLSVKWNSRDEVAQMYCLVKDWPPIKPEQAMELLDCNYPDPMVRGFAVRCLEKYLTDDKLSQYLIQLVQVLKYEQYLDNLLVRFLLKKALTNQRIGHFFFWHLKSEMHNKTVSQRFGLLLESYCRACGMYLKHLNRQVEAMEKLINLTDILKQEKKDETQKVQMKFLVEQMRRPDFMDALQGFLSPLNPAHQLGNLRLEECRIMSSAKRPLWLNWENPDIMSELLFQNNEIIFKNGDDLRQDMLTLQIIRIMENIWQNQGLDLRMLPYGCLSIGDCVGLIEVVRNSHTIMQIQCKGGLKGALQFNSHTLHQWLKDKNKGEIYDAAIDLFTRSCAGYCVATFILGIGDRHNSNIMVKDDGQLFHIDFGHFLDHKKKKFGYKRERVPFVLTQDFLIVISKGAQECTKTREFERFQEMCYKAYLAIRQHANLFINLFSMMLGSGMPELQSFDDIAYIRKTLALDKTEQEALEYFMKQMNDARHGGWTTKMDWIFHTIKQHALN
Chain of H1047R PIK3CA enzyme (P27986 whole entry partner): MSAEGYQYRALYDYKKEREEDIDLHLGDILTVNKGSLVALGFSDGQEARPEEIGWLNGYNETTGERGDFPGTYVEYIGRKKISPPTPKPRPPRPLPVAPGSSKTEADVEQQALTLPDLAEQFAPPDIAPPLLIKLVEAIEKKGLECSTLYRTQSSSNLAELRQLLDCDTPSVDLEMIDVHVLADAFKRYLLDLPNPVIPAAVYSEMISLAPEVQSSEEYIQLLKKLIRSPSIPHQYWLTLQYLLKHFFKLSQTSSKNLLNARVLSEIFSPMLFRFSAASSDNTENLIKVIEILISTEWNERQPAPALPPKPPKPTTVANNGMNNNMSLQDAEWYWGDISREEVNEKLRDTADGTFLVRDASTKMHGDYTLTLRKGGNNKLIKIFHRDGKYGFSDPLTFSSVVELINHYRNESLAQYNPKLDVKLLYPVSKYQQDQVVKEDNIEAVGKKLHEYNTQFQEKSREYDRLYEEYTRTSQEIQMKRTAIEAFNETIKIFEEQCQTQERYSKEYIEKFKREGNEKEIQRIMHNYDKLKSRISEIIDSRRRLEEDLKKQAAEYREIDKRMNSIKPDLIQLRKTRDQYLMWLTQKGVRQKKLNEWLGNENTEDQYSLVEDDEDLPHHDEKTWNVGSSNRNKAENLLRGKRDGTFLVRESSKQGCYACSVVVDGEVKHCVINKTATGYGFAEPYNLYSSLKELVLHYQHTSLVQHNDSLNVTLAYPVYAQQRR

The experiment concerns the target H1047R PIK3CA enzyme (Homo sapiens, UniProt P42336, H1047R). The experiment is described as follows: ADP-Glo Biochemical PIK3CA Kinase Assay. (ADP-Glo turns the ADP formed in a reaction into a luminescent signal.)
Take `O=C(Nc1cc(Cl)nc2c1[C@H](c1cc(F)ccc1Cl)NC2=O)c1cc(F)cc(C(F)(F)F)c1` [Compound I-616]: the IC50 lay in the range of 100 to 500 nM.

`O=C(Nc1cc(Cl)nc2c1[C@@H](c1cc(F)ccc1Cl)NC2=O)c1cc(F)cc(C(F)(F)F)c1` [Compound I-617]: the half-inhibitory concentration (IC50) was ≤ 100 nM.

Regarding `CS(=O)(=O)Cc1cc(NC(=O)c2cc(F)cc(C(F)(F)F)c2)c2c(c1)C(=O)N[C@H]2c1cc(F)ccc1Cl` [Compound I-618], the IC50 was ≤ 100 nM.

In the case of `CS(=O)(=O)Cc1cc(NC(=O)c2cc(F)cc(C(F)(F)F)c2)c2c(c1)C(=O)N[C@@H]2c1cc(F)ccc1Cl` [Compound I-619], the IC50 lay within 1000 to 10000 nM.

For the compound `CC(=O)Cc1cc(NC(=O)c2cc(F)cc(C(F)(F)F)c2)c2c(c1)C(=O)NC2c1cc(F)ccc1C(F)F` (stereo not shown) [Compound I-620], the IC50 was ≤ 100 nM.

For `CC(C)(O)Cc1cc(NC(=O)c2cc(F)cc(C(F)(F)F)c2)c2c(c1)C(=O)N[C@H]2c1cc(F)ccc1Cl` [Compound I-621], the IC50 was ≤ 100 nM.

`CC(C)(O)Cc1cc(NC(=O)c2cc(F)cc(C(F)(F)F)c2)c2c(c1)C(=O)N[C@@H]2c1cc(F)ccc1Cl` [Compound I-622] showed an IC50 of 100 to 500 nM.

For `CC(=O)Cc1cc(NC(=O)c2cc(F)cc(C(F)(F)F)c2)c2c(c1)C(=O)N[C@@H]2c1cc(F)ccc1Cl` [Compound I-623], the IC50 is ≤ 100 nM.

Take `CC(=O)Cc1cc(NC(=O)c2cc(F)cc(C(F)(F)F)c2)c2c(c1)C(=O)N[C@H]2c1cc(F)ccc1Cl` [Compound I-624]: the half-maximal inhibitory concentration (IC50) fell in the range of 100 to 500 nM.

On to `O=C(Nc1cc(NC(=O)C2CC2)cc2c1C(c1cc(F)ccc1Cl)NC2=O)c1cc(F)cc(C(F)(F)F)c1` (stereo not shown) [Compound I-625], for which the IC50 is ≤ 100 nM.

Consider `O=C1NC(c2cc(F)ccc2Cl)c2c(NC(=O)c3csc4ccccc34)cc(Br)cc21` (stereo not shown) [Compound I-626], for which the IC50 was ≤ 100 nM.

In turn, `CC(C)(O)c1cc(F)cc(C(=O)Nc2cccc3c2C(c2cc(F)ccc2Cl)NC3=O)c1` (stereo not shown) [Compound I-627] gave a 50% inhibitory concentration (IC50) of 10000 to 100000 nM.

With `O=C(Nc1cccc2c1C(c1cc(F)ccc1Br)NC2=O)c1cc(F)cc(C(F)(F)F)c1` (stereo not shown) [Compound I-628], the 50% inhibitory concentration (IC50) is ≤ 100 nM.

`O=C(Nc1cccc2c(=O)[nH]n(C3CCCCC3)c12)c1cc(F)cc(C(F)(F)F)c1` [Compound I-629]: the half-maximal inhibitory concentration (IC50) fell in the range of 1000 to 10000 nM.

Regarding `O=C(Nc1cccc2c1C(c1ccnc(Cl)c1)NC2=O)c1cc(F)cc(C(F)(F)F)c1` (stereo not shown) [Compound I-630], the IC50 lay in the range of 10000 to 100000 nM.

For `O=C1NC(c2cc(F)ccc2Cl)c2c(NC(=O)C3CCCc4ccccc43)cc(Br)cc21` (stereo not shown) [Compound I-631], the IC50 was 1000 to 10000 nM.

Compound `O=C1NC(c2cc(F)ccc2Cl)c2c(NC(=O)C3(c4ccccc4)COC3)cc(Br)cc21` (stereo not shown) [Compound I-632] came in with an IC50 of 10000 to 100000 nM.

The compound `O=C(Cn1ncc2ccccc21)Nc1cc(Br)cc2c1C(c1cc(F)ccc1Cl)NC2=O` (stereo not shown) [Compound I-633] yielded an IC50 of 10000 to 100000 nM.

For the compound `CC1(C(=O)Nc2cc(Br)cc3c2C(c2cc(F)ccc2Cl)NC3=O)CCCc2ccccc21` (stereo not shown) [Compound I-634], the half-maximal inhibitory concentration (IC50) lay in the range of 1000 to 10000 nM.

For `Cc1cc2cccc(C(=O)Nc3cc(Br)cc4c3C(c3cc(F)ccc3Cl)NC4=O)c2o1` (stereo not shown) [Compound I-635], the IC50 was in the range of 1000 to 10000 nM.

Compound `Cn1ccc2c(C(=O)Nc3cc(Br)cc4c3C(c3cc(F)ccc3Cl)NC4=O)ccnc21` (stereo not shown) [Compound I-636] displayed an IC50 of 10000 to 100000 nM.

Consider `O=C(Nc1cc(Br)cc2c1C(c1cc(F)ccc1Cl)NC2=O)c1ccc2nncn2c1` (stereo not shown) [Compound I-637], for which the IC50 fell in the range of 10000 to 100000 nM.

In turn, `O=C1NC(c2cc(F)ccc2Cl)c2c(NC(=O)c3nccc4ccccc34)cc(Br)cc21` (stereo not shown) [Compound I-638] returned an IC50 of 10000 to 100000 nM.

Turning to `N#Cc1ccccc1C(=O)Nc1cc(Br)cc2c1C(c1cc(F)ccc1Cl)NC2=O` (stereo not shown) [Compound I-639], the IC50 fell in the range of 10000 to 100000 nM.

For the compound `CCc1cc(C(=O)Nc2cc(Br)cc3c2C(c2ccccc2C)NC3=O)ccc1F` (stereo not shown) [Compound I-640], the IC50 fell in the range of 1000 to 10000 nM.

Consider `O=C(Nc1cc(F)cc2c1C(c1cc(F)ccc1Cl)NC2=O)c1cc(F)cc(C(F)(F)F)c1` (stereo not shown) [Compound I-641], for which the IC50 was ≤ 100 nM.

For `O=C(Nc1cc(C2=CCOC2)cc2c1C(c1cc(F)ccc1Cl)NC2=O)c1cc(F)cc(C(F)(F)F)c1` (stereo not shown) [Compound I-643], the IC50 is ≤ 100 nM.

Regarding `O=C(Nc1cc(CC2(O)CC2)cc2c1C(c1cc(F)ccc1Cl)NC2=O)c1cc(F)cc(C(F)(F)F)c1` (stereo not shown) [Compound I-644], the concentration for half-maximal inhibition (IC50) was ≤ 100 nM.

`CC(C)(O)Cc1cc(NC(=O)c2cc(F)cc(Cl)c2)c2c(c1)C(=O)NC2c1cc(F)ccc1Cl` (stereo not shown) [Compound I-645]: the IC50 was ≤ 100 nM.

Turning to `O=C1NC(c2cc(F)ccc2Cl)c2c(NC(=O)c3cc(F)cc4cc[nH]c34)cccc21` (stereo not shown) [Compound I-646], the IC50 is ≤ 100 nM.

Regarding `O=C(Nc1cc(-c2ccc(=O)n(C3CC3)c2)nc2c1C(c1cc(F)ccc1Cl)NC2=O)c1cc(F)cc(C(F)(F)F)c1` (stereo not shown) [Compound I-647], the IC50 is ≤ 100 nM.

Regarding `Cn1cc(-c2cc(NC(=O)c3cc(F)cc(C(F)(F)F)c3)c3c(c2)C(=O)NC3c2cc(F)ccc2Cl)ccc1=O` (stereo not shown) [Compound I-648], the concentration for half-maximal inhibition (IC50) was ≤ 100 nM.

As to `CCn1cc(-c2cc(NC(=O)c3cc(F)cc(C(F)(F)F)c3)c3c(c2)C(=O)NC3c2cc(F)ccc2Cl)ccc1=O` (stereo not shown) [Compound I-649], the 50% inhibitory concentration (IC50) is ≤ 100 nM.

Compound `CC(C)n1cc(-c2cc(NC(=O)c3cc(F)cc(C(F)(F)F)c3)c3c(n2)C(=O)N[C@@H]3c2cc(F)ccc2Cl)ccc1=O` [Compound I-650] yielded an IC50 of 500 to 1000 nM.

Consider `CC(C)n1cc(-c2cc(NC(=O)c3cc(F)cc(C(F)(F)F)c3)c3c(n2)C(=O)N[C@H]3c2cc(F)ccc2Cl)ccc1=O` [Compound I-651], for which the IC50 is ≤ 100 nM.

Regarding `Cc1ncc(-c2cc(NC(=O)c3cc(F)cc(C(F)(F)F)c3)c3c(n2)C(=O)N[C@@H]3c2cc(F)ccc2Cl)cn1` [Compound I-652], the IC50 lay in the range of 500 to 1000 nM.

As for `Cc1ncc(-c2cc(NC(=O)c3cc(F)cc(C(F)(F)F)c3)c3c(n2)C(=O)N[C@H]3c2cc(F)ccc2Cl)cn1` [Compound I-653], the half-maximal inhibitory concentration (IC50) is ≤ 100 nM.

As for `O=C(Nc1cc(C2CNC2)cc2c1C(c1cc(F)ccc1Cl)NC2=O)c1cc(F)cc(C(F)(F)F)c1` (stereo not shown) [Compound I-654], the IC50 was ≤ 100 nM.

For `CC(=O)N1CC(c2cc(NC(=O)c3cc(F)cc(C(F)(F)F)c3)c3c(c2)C(=O)NC3c2cc(F)ccc2Cl)C1` (stereo not shown) [Compound I-655], the IC50 is ≤ 100 nM.

For `CC(C)(COS(C)(=O)=O)c1cc(NC(=O)c2cc(F)cc(C(F)(F)F)c2)c2c(c1)C(=O)NC2c1cc(F)ccc1Cl` (stereo not shown) [Compound I-656], the IC50 was ≤ 100 nM.

For `Cc1ccccc1C1NC(=O)c2cccc(NC(=O)c3cc(F)cc(C4COC4)c3)c21` (stereo not shown) [Compound I-657], the IC50 lay within 1000 to 10000 nM.

As for `O=C(Nc1cccc2c1C(c1ccnc(O)c1)NC2=O)c1cc(F)cc(C(F)(F)F)c1` (stereo not shown) [Compound I-658], the IC50 is 10000 to 100000 nM.

As for `N#Cc1cccc(C2NC(=O)c3cccc(NC(=O)c4cc(F)cc(C(F)(F)F)c4)c32)c1` (stereo not shown) [Compound I-659], the IC50 fell in the range of 10000 to 100000 nM.

`O=C(Nc1cccc2c1C(c1cccc3c1NCC3)NC2=O)c1cc(F)cc(C(F)(F)F)c1` (stereo not shown) [Compound I-660] gave a half-maximal inhibitory concentration (IC50) of 10000 to 100000 nM.

As to `O=C(Nc1cccc2c1C(c1cccc(Br)c1)NC2=O)c1cc(F)cc(C(F)(F)F)c1` (stereo not shown) [Compound I-663], the concentration for half-maximal inhibition (IC50) is 10000 to 100000 nM.

Regarding `O=C(Nc1cccc2c1C(c1cccc3cn[nH]c13)NC2=O)c1cc(F)cc(C(F)(F)F)c1` (stereo not shown) [Compound I-666], the IC50 lay in the range of 10000 to 100000 nM.

For orientation: IC50 means the concentration that inhibits the measured activity by half. Read a low IC50 as inhibition by little substance.
